In data set [1] the test system is Escherichia coli CCUG # 17620. In words: MIC of established antibiotics, micro-broth dilution. As to conditions: CCUG17620, read-out: MIC Escherichia coli CCUG 17620. Background: Dilution methods test growth across graded concentrations, often in twofold steps.
Data set [2] deals with Escherichia coli CCUG # 67180. The description is as above. The following applies: CCUG67180, read-out: MIC Escherichia coli CCUG 67180.
For data set [3], the system named is Klebsiella pneumoniae CCUG # 225T. The data set is described as above. The following applies: read-out: MIC Klebsiella pneumoniae CCUG 225T.
Data set [4] relates to Klebsiella pneumoniae CCUG # 58547. Described as above. The following applies: CCUG58547, read-out: MIC Klebsiella pneumoniae CCUG 58547.
For data set [5], the system named is Pseudomonas aeruginosa CCUG # 17619. The data set is described as above. The following applies: CCUG17619, read-out: MIC Pseudomonas aeruginosa CCUG 17619.
Data set [6] concerns Pseudomonas aeruginosa CCUG # 59347. The description is as above. The following applies: CCUG59347, read-out: MIC Pseudomonas aeruginosa CCUG 59347.
In data set [7] the test system is Acinetobacter baumannii CCUG # 57250. The description is as above. As to conditions: CCUG57250, read-out: MIC Acinetobacter baumannii CCUG 57250.
In data set [8] the test system is Acinetobacter baumannii CCUG # 57035. Described as above. The following applies: CCUG57035, read-out: MIC Acinetobacter baumannii CCUG 57035.
The subject of data set [9] is Enterobacter cloacae CCUG # 6323T. The description is as above. The following applies: read-out: MIC Enterobacter cloacae CCUG 6323T.
Data set [10] has as its system Enterobacter hormaechei CCUG # 58962. Described as above. As to conditions: CCUG58962, read-out: MIC Enterobacter hormaechei CCUG 58962.
The nature of data set [11]: Cytotoxicity assay (PrestoBlue) MCF-7. As to conditions: human, MCF-7 cells (breast cancer cell line), 24 h incubation. The class given is cell-based. As for the experimental part: (§1) The cytotoxicity levels of all compounds were evaluated against human Michigan Cancer Foundation-7 (MCF-7) and Hepatoma G2 cell line (HepG2) cell lines. MCF-7 is an extensively characterized breast cancer cell line isolated in 1970 [41], while HepG2 cells were derived from a hepatoma in 1975 [42]. Both cell lines grow robustly during in vitro culture and have been widely used for cytotoxicity testing. Cells of hepatic origin, such as HepG2, are of particular relevance for toxicity studies as many drugs accumulate in the liver during metabolic conversion. Cells were grown in Dulbecco’s Modified Eagle Medium supplemented with 10% fetal calf serum and kept in exponential growth, as previously reported. Before the assay, cells were reseeded into 96-well microtiter plates at a density allowing continued exponential growth and let to settle for 24 h. The compounds were added from a stock solution in DMSO, for a final concentration of 0.3% v/v of the solvent in the culture medium. After 24 h of incubation in presence of the compound, cell viability was assayed using PrestoBlue Cell Viability Reagent (resazurin-based solution, ThermoFisher, Waltham, MA, USA) according to the manufacturer’s instructions. […] Each assay contained a DMSO control at the equivalent starting concentration, positive control (uninhibited cell growth) and negative control (cell medium only). Survival was expressed as percentage of the solvent-only control. […] The Selectivity Index (SI) for each compound and bacterial strain was calculated as the ratio between the mean of the EC50 values for the two human cell lines and the EC50 for the bacterial strain in question ((EC50 MCF-7 + EC50 HepG2)/2)/EC50 bacterial strain).

Data set [12] is described as follows: Cytotoxicity assay (PrestoBlue) HepG2. The class given is cell-based. The following applies: human, HepG2 cells (hepatoma cell line), 24 h incubation. As for the experimental part: as §1
The test system of data set [13] is B. subtilis (NBRC/ATCC #111470). Kind of data set: Antibacterial resazurin assay, laboratory strain. For orientation: Alamar Blue is a resazurin reagent that responds to reducing activity.
In data set [14] the test system is E. coli MG1655 (CGSC #6300). In words: Antibacterial resazurin assay, laboratory strain.
Data set [15] has as its system P. putida (NBRC/ATCC #100650). In words: Antibacterial resazurin assay, laboratory strain. As to conditions: Pseudomonas putida, ATCC100650, 18 h.
In data set [16] the test system is P. carotovorum (NBRC/ATCC #3380). In words: Antibacterial resazurin assay, laboratory strain.
Data set [17] has as its system P. caledonica (NBRC/ATCC #102488). Kind of data set: Antibacterial resazurin assay, laboratory strain.
Setting [18] is: mean of MCF-7 and HepG2 EC50 over bacterial EC50, laboratory strain.

One may read the MIC as the lowest concentration that inhibits growth of the organism. Broadly, the EC50 is the concentration needed to bring the measured effect to its halfway point. In general, EC90 refers to the point of the concentration-response curve where the effect stands at 90%.

As to `CC1(C)S[C@@H]2[C@H](NC(=O)[C@H](N)c3ccc(O)cc3)C(=O)N2[C@H]1C(=O)O` [Amoxicillin], the minimal inhibitory concentration (MIC) in data set [1] is 11 to 44 µM; in [2], 350 µM; in [3] it was 350 µM; in [4], 350 µM; in data set [5], 350 µM; in data set [6], 350 µM. The minimal inhibitory concentration (MIC) in data set [7] came to 175 µM; in [8], 175 µM; in data set [9], 350 µM; in [10] it was 350 µM.
Consider `O=C(O)c1cn(C2CC2)c2cc(N3CCNCC3)c(F)cc2c1=O` [Ciprofloxacin], for which the MIC was 0.025 µM in data set [1]; 190 µM in data set [2]; 0.18 µM in data set [3]; 190 µM in [4]; 1.5 to 3 µM in data set [5]; 100 µM in data set [6]. Besides, the MIC in data set [7] is 200 µM; in [8], 200 µM; in data set [10], 0.1 µM.
For `N=C(N)Nc1ccc(-c2ccc(C(=O)N3CCc4ccccc43)o2)c(Cl)c1` [Compound 20, (5-(2-chloro-4-guanidinophenyl)furan-2-yl)(indolin-1-yl)methanone], the EC50 at 24 h in data set [11] turned out to be 37.8 µM; in [12] it was 28.5 µM. Besides, the EC50 was 24.5 µM in [13] (Bacillus subtilis, ATCC111470, 18 h, read-out: Bsu EC50); 61.7 µM in data set [14] (Escherichia coli, MG1655, 18 h, read-out: Eco EC50); greater than 300 µM in data set [15] (read-out: Ppu EC50, laboratory strain, 18 h, 37 °C, AlamarBlue); 159 µM in [16] (Pectobacterium carotovorum, ATCC3380, 18 h, read-out: Pcar EC50, laboratory strain, 18 h, 37 °C, AlamarBlue); 129 µM in [17] (Paraburkholderia caledonica, ATCC102488, 18 h, read-out: Pcal EC50). The concentration for an effect of 90% (EC90) in [13] (Bacillus subtilis, ATCC111470, 18 h, read-out: Bsu EC90) is 38.4 µM; in data set [14] (Escherichia coli, MG1655, 18 h, read-out: Eco EC90), 106 µM; in [15] (read-out: Ppu EC90) it was greater than 300 µM; in data set [16] (Pectobacterium carotovorum, ATCC3380, 18 h, read-out: Pcar EC90) it was 187 µM; in data set [17] (Paraburkholderia caledonica, ATCC102488, 18 h, read-out: Pcal EC90) it was greater than 300 µM. Also, the “Selectivity index B. subtilis” value in data set [13] (setting [18]) worked out at 1.4. In addition, the “Selectivity index E. coli” value in [14] (setting [18]) was 0.5. For the same molecule, the “Selectivity index P. carotovorum” value in data set [16] (setting [18]) turned out to be 0.2. Moreover, in data set [17] (setting [18]), the “Selectivity index P. caledonica” value came out at 0.3.
On to `C[C@@H](O)[C@H]1C(=O)N2C(C(=O)O)=C(S[C@@H]3CN[C@H](C(=O)N(C)C)C3)[C@H](C)[C@H]12` [Meropenem], for which the minimum inhibitory concentration (MIC) in data set [1] is 0.16 µM; in data set [2], 10 to 20 µM; in data set [3], 0.16 to 0.32 µM; in data set [4], greater than 80 µM; in data set [5], 2.6 to 5.2 µM; in data set [6], 335 µM. Also, the minimal inhibitory concentration (MIC) is 40 µM in [7], 335 µM in data set [8], 0.6 to 1.2 µM in data set [9] and 0.3 µM in [10].

The values are drawn from paper PMC9404985, “Development of Dicationic Bisguanidine-Arylfuran Derivatives as Potent Agents against Gram-Negative Bacteria” (Antibiotics, 2022).
